Assay [1] deals with MCF7. Put plainly: Cytotoxicity against human MCF7 cells. The class given is functional, cell-based.
In the next assay the test system is A498. Put plainly: Cytotoxicity against human A498 cells. Format: functional, cell-based.
For a further assay, the system named is WiDr. Description: Cytotoxicity against human WIDR cells. The class given is functional, cell-based.
For assay [2], the system named is M19 melanoma cell line (human). Put plainly: Cytotoxicity against human M19 melanoma cells.
The nature of assay [3]: Cytotoxicity against human IGROV cells. Format: functional, cell-based.
In another assay the test system is EVSA-T. Put plainly: Cytotoxicity against human EVSA-T cells. The class given is functional, cell-based.
Assay [4] in a line: Cytotoxicity against human H226 cells. The class given is functional, cell-based. The note with it: NCI-H226.
Another assay relates to MDA-MB-231. Put plainly: Cytotoxicity against ERalpha negative human MDA-MB-231 cells. The class given is functional, cell-based.
The subject of assay [5] is MCF7. Description: Cytotoxicity against ERalpha positive human MCF7 cells. The class given is functional, cell-based.
Another assay has as its system PC-3. Put plainly: Cytotoxicity against ERbeta positive human PC3 cells. The class given is functional, cell-based.

Values after ≈ are worked out from the molar mass of the structure shown.

Data on 5 compounds can be found in ChEMBL document CHEMBL1140624, “Improved biochemical strategies for targeted delivery of taxoids” (Bioorg Med Chem, 2007).

As a reminder, the IC50 is the concentration needed to halve the response being measured. Low readings indicate greater potency in that assay, high ones weaker potency in that assay. Take `CC(=O)O[C@H]1C(=O)[C@@]2(C)[C@H]([C@H](OC(=O)c3ccccc3)[C@]3(O)C[C@H](OC(=O)[C@H](OC(=O)OCc4ccc(NC(=O)[C@H](CCCCN)NC(=O)[C@H](CC(C)C)NC(=O)[C@H](N)C(C)C)cc4)[C@@H](NC(=O)c4ccccc4)c4ccccc4)C(C)=C1C3(C)C)[C@]1(OC(C)=O)CO[C@@H]1C[C@@H]2O.Cl`: the IC50 was 0.0092 mg/L with MCF7 [1]; greater than 0.06 mg/L in the assay on A498; 0.011 mg/L with WiDr; 0.02 mg/L in assay [2]; 0.027 mg/L in [3]; 0.0093 mg/L in the assay on EVSA-T. Further, in assay [4], 0.016 mg/L corresponded to half-maximal inhibition (IC50).

As to `CC(=O)O[C@H]1C(=O)[C@@]2(C)[C@H]([C@H](OC(=O)c3ccccc3)[C@]3(O)C[C@H](OC(=O)[C@H](OC(=O)N(C)CCNC(=O)[C@H](CCCCN)NC(=O)[C@H](Cc4ccccc4)NC(=O)[C@H](N)C(C)C)[C@@H](NC(=O)c4ccccc4)c4ccccc4)C(C)=C1C3(C)C)[C@]1(OC(C)=O)CO[C@@H]1C[C@@H]2O.Cl`, the IC50 in the assay with MCF7 [1] was greater than 0.063 mg/L; in the assay on A498, greater than 0.063 mg/L; with MDA-MB-231, 4.5 nM; with WiDr, 0.047 mg/L; in the assay on MCF7 [5] it was 4.9 nM; in assay [2], 0.047 mg/L. Also, the IC50 is 0.045 mg/L in assay [3], 77 nM in the assay on PC-3, greater than 0.063 mg/L in the assay with EVSA-T and 0.048 mg/L in [4].

Take `CC(=O)O[C@H]1C(=O)[C@@]2(C)[C@H]([C@H](OC(=O)c3ccccc3)[C@]3(O)C[C@H](OC(=O)[C@H](OC(=O)OC/C=C/c4ccc([N+](=O)[O-])cc4)[C@@H](NC(=O)c4ccccc4)c4ccccc4)C(C)=C1C3(C)C)[C@]1(OC(C)=O)CO[C@@H]1C[C@@H]2O`: the IC50 with MCF7 [1] is 0.186 mg/L (≈ 0.176 µM); in the assay on A498 it was 0.187 mg/L (≈ 0.177 µM); in the assay with WiDr it was 0.308 mg/L (≈ 0.291 µM); in assay [2] it was 0.384 mg/L (≈ 0.363 µM); in [3], 0.62 mg/L (≈ 0.585 µM); in the assay on EVSA-T, 0.221 mg/L (≈ 0.209 µM). The IC50 in [4] turned out to be 0.187 mg/L (≈ 0.177 µM).

On to `CC(=O)O[C@H]1C(=O)[C@@]2(C)[C@H]([C@H](OC(=O)c3ccccc3)[C@]3(O)C[C@H](OC(=O)[C@H](OC(=O)NCCNC(=O)[C@H](CCCCN)NC(=O)[C@H](Cc4ccccc4)NC(=O)[C@@H](C)N)[C@@H](NC(=O)c4ccccc4)c4ccccc4)C(C)=C1C3(C)C)[C@]1(OC(C)=O)CO[C@@H]1C[C@@H]2O.Cl`, for which the IC50 in the assay with MCF7 [1] came to 0.016 mg/L; in the assay on A498, 0.04 mg/L; in the assay on MDA-MB-231, 4.5 nM; with WiDr, 0.013 mg/L; in the assay on MCF7 [5], 4.9 nM; in assay [2] it was 0.045 mg/L. For the same compound, the IC50 in [3] stood at 0.019 mg/L; in the assay with PC-3, 77 nM; in the assay on EVSA-T it was 0.011 mg/L; in [4] it was 0.041 mg/L.

As to `CC(=O)O[C@H]1C(=O)[C@@]2(C)[C@H]([C@H](OC(=O)c3ccccc3)[C@]3(O)C[C@H](OC(=O)[C@H](OC(=O)N(C)CCN(C)C(=O)[C@H](CCCCN)NC(=O)[C@H](Cc4ccccc4)NC(=O)[C@@H](C)N)[C@@H](NC(=O)c4ccccc4)c4ccccc4)C(C)=C1C3(C)C)[C@]1(OC(C)=O)CO[C@@H]1C[C@@H]2O.Cl`, the 50% inhibitory concentration (IC50) was 0.0066 mg/L in the assay with MCF7 [1]; 0.038 mg/L with A498; 4.5 nM in the assay on MDA-MB-231; 0.01 mg/L in the assay with WiDr; 4.9 nM with MCF7 [5]; 0.017 mg/L in assay [2]. The IC50 is 0.011 mg/L in assay [3], 77 nM with PC-3, 0.0072 mg/L with EVSA-T and 0.021 mg/L in assay [4].
